Patent publication US20130302282A1, “Inhibitors of Hepatitis C Virus” (priority 2010, published 2013)
Where two headings read alike, the source gives them in different places.

Assays:
[1] = tested on: 1b_Huh-Luc/Neo-ET cell line (bicistronic genotype 1b replicon in Huh 7 cells); assay: HCV 1b replicon assay, luciferase readout; format: cell-based, HCV genotype 1b; conditions: Hepatitis C virus
Summary of the method: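 Huh 7 cells persistently carrying a bicistronic genotype 1b luciferase replicon, treated with compound in triplicate the day after plating and incubated 72 h. Luciferase activity measured by Bright-Glo and expressed as percent of untreated control; EC50 from four-parameter fit, repeated several times.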

[2] = biological target: T1, HCV NS5B C316Y mutant (Hepatitis C virus genotype 1b, UniProt Q9WMX2, C2735Y); assay: Activity against HCV NS5B C316Y mutant; format: cell-based; conditions: for Inhibition of HCV N55B C316Y mutant: class symbol
T1 construct: HCV NS5B C316Y or S365A mutant as indicated; expressed in transfected cells
T1 sequence (Q9WMX2 2420-3010 C2735Y): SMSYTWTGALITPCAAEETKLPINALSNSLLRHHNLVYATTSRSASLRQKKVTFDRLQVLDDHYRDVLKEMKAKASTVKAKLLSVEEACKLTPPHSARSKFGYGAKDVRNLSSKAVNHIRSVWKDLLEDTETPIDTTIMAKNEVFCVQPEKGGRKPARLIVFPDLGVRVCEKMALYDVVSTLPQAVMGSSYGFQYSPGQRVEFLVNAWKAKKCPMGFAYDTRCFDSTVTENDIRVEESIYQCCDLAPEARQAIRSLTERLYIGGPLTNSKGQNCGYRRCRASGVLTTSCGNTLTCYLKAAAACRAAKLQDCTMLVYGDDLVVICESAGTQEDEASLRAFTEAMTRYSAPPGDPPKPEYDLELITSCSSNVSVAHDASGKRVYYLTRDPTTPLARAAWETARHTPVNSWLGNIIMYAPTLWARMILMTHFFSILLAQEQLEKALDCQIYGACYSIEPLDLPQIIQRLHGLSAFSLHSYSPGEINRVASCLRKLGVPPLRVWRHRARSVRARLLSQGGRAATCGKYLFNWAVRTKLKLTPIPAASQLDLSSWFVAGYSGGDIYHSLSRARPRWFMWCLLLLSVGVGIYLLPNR
Protocol: (§1) The biological activity against HCV 1b, 1a, or 2a is indicated as being *, **, ***, or ****, which corresponds to EC50 ranges of EC50>1000 nM, 100 nM<EC50≦1000 nM, 10 nM<EC50≦100 nM, or EC50≦10 nM, respectively. The biological activity against HCV NS5B C316Y or S365A mutant is indicated as being […], which corresponds to EC50 ranges of EC50>1000 nM, 200 nM<EC50≦1000 nM, […], respectively.

[3] = biological target: T2, HCV NS5B S365A mutant (Hepatitis C virus genotype 1b, UniProt Q9WMX2, S2784A); assay: Activity against HCV NS5B S365A mutant; format: cell-based
T2 construct: HCV NS5B C316Y or S365A mutant as indicated; expressed in transfected cells
T2 sequence (Q9WMX2 2420-3010 S2784A): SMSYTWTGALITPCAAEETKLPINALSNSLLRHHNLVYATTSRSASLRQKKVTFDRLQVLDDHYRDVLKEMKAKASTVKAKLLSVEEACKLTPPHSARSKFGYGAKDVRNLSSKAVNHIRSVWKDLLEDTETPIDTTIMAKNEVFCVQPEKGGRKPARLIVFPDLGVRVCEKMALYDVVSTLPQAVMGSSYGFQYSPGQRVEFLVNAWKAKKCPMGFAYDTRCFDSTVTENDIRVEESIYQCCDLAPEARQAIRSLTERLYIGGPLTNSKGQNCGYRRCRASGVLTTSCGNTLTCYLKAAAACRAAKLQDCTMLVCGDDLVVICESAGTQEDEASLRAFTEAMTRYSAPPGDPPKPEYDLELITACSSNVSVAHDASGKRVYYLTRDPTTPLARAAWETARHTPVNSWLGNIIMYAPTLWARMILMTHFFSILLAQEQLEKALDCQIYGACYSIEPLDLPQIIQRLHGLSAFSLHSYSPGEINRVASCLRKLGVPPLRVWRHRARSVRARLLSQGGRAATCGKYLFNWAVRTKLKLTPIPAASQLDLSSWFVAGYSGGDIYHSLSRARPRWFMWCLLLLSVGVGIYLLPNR
Protocol: as §1

[4] = tested on: HCV 2a; assay: HCV 2a replicon assay; format: cell-based; conditions: Hepatitis C virus; class symbol; cell marked (HCV genotype 2a replicon); read-out: Inhibition of HCV genotype 2a replicon
Protocol: (§2) Compounds of the invention can inhibit multiple genotypes of HCV selected but not limited to 1a, 1h, 2a, 3a, and 4a. The EC50s are measured in the corresponding replicon assays that are similar to HCV 1b replicon assay as described above.
as §1

[5] = tested on: HCV 1a; assay: HCV 1a replicon assay; format: cell-based; conditions: Hepatitis C virus; class symbol; cell marked (HCV genotype 1a replicon); read-out: Inhibition of HCV genotype 1a replicon
Protocol: as §2, §1

[6] = Huh-7, 1b_Huh-Luc/Neo-ET cell line, read-out: EC50, half-maximal inhibition of HCV 1b replication
[7] = Huh-7, numeric value, HCV genotype 1b replicon, read-out: Inhibition of HCV genotype 1b replicon (EC50)

SMILES | EC50 [1, 6] [µM] | EC50 [4] [µM] | further results
CNC(=O)c1c(-c2ccc(Oc3ccc(F)cc3)cc2)oc2cc3c(cc12)[C@H](C)OCCN3S(C)(=O)=O [Compound B118] | ≤ 0.01 |  | EC50 [1, 7]: 0.0031 µM; Inhibition of HCV N55B C316Y mutant [2]: †††; Inhibition of HCV NS5B S3865A mutant ([3]; class symbol, S3865A mutant): †††
CNC(=O)c1c(-c2ccc(Oc3ccc(F)cc3)cc2)oc2cc3c(cc12)[C@H](C)OC1(CC1)CN3S(C)(=O)=O (single isomer, unassigned) [Compound B187] | ≤ 0.01 |  | EC50 ([1]; Huh-7, class symbol, HCV genotype 1b replicon, read-out: Inhibition of HCV genotype 1b replicon): < 0.01 µM; EC50 [2]: > 1 µM; EC50 [3]: > 1 µM
CNC(=O)c1c(-c2ccc(Oc3ccc(F)cc3)cc2)nn2cc3c(cc12)C(C)CCCN3S(C)(=O)=O (centres unmarked) [Compound B76] |  | 0.1 to 1 | 
C=C1CCCN(S(C)(=O)=O)c2cc3oc(-c4ccc(F)cc4)c(C(=O)NC)c3cc21 [Compound B61] |  | > 1 | 
CS(=O)(=O)N1CCCCc2cc3c(-c4ncc[nH]4)c(-c4ccc(F)cc4)oc3cc21 [Compound B67] | ≤ 0.01 |  | EC50 [1, 7]: 0.0052 µM; Inhibition of HCV N55B C316Y mutant [2]: †††; EC50 [3]: 0.2 to 1 µM
C=C1c2cc3c(C(=O)NC)c(-c4ccc(F)cc4)oc3cc2N(S(C)(=O)=O)CCC1(C)C [Compound B101] | 0.01 to 0.1 | 0.01 to 0.1 | 
CNC(=O)c1c(-c2ccc(F)cc2)nn2cc3c(cc12)C=CCCN3S(C)(=O)=O [Compound B74] |  | > 1 | 
C=C1CCCN(S(C)(=O)=O)c2cn3nc(-c4ccc(F)cc4)c(C(=O)NC)c3cc21 [Compound B68] |  | > 1 | 
CNC(=O)c1c(-c2ccc(Oc3cccc(Cl)c3)cc2)nn2cc3c(cc12)C(C)CCCN3S(C)(=O)=O (centres unmarked) [Compound B98] |  | 0.1 to 1 | 
CNC(=O)c1c(-c2ccc(F)cc2)nn2cc3c(cc12)C(=O)CCCN3S(C)(=O)=O [Compound B69] |  | > 1 | 
CNC(=O)c1c(-c2ccc(F)cc2)nn2cc3c(cc12)OCCCN3S(C)(=O)=O [Compound B70] |  | > 1 | 
CS(=O)(=O)N1CCCCc2cc3c(C(=O)NC#N)c(-c4ccc(F)cc4)oc3cc21 [Compound B64] |  | > 1 | 
CS(=O)(=O)N1CCCCc2cc3c(C4=NCCN4)c(-c4ccc(F)cc4)oc3cc21 [Compound B66] |  | > 1 | 
CNC(=O)c1c(-c2ccc(F)cc2)oc2cc3c(cc12)C(=O)N(C)CCN3S(C)(=O)=O [Compound B106] | 0.01 to 0.1 |  | EC50 [5]: 0.01 to 0.1 µM
CNC(=O)c1c(-c2ccc(F)cc2)oc2cc3c(cc12)C(C)=CCCN3S(C)(=O)=O [Compound B62] |  | > 1 | 
CNC(=O)c1c(-c2ccc(F)cc2)oc2cc3c(cc12)C(O)C(C)CCN3S(C)(=O)=O (centres unmarked) [Compound B78] |  | 0.1 to 1 | 
CNC(=O)c1c(-c2ccc(F)cc2)oc2cc3c(cc12)C(C)CCN3S(C)(=O)=O (centres unmarked) [Compound B10] |  | 0.1 to 1 | 
CNC(=O)c1c(-c2ccc(F)cc2)oc2cc3c(cc12)C(C)N(C(=O)OCc1ccccc1)CCN3S(C)(=O)=O (centres unmarked) [Compound B111] | 0.01 to 0.1 |  | EC50 [5]: 0.01 to 0.1 µM
CNC(=O)c1c(-c2ccc(Oc3ccc(F)cc3)cc2)oc2cc3c(cc12)C(C)OCCN3S(C)(=O)=O (centres unmarked) [Compound B116] | 0.01 to 0.1 |  | EC50 [5]: 0.01 to 0.1 µM
CNC(=O)c1c(-c2ccc(F)cc2)oc2cc3c(cc12)C(C)N(CCc1ccc(F)cc1)CCN3S(C)(=O)=O (centres unmarked) [Compound B155] | 0.01 to 0.1 |  | EC50 [5]: 0.01 to 0.1 µM
[2H]C([2H])([2H])NC(=O)c1c(-c2ccc(Oc3ccc(F)cc3)cc2)oc2cc3c(cc12)C(C)OCCN3S(C)(=O)=O (centres unmarked) [Compound B119] | 0.01 to 0.1 |  | EC50 [5]: 0.01 to 0.1 µM
[2H]C([2H])([2H])NC(=O)c1c(-c2ccc(F)cc2)oc2cc3c(cc12)C(C)CCCN3S(C)(=O)=O (centres unmarked) [Compound B121] | ≤ 0.01 |  | EC50 [5]: < 0.01 µM
CS(=O)(=O)N1CCCCc2cc3c(-c4nnn[nH]4)c(-c4ccc(F)cc4)oc3cc21 [Compound B65] |  | > 1 | 
CNC(=O)c1c(-c2ccc(Oc3ccc(F)cc3)cc2)oc2cc3c(cc12)[C@@H]1C[C@@H]1CCN3S(C)(=O)=O (single isomer, unassigned) [Compound B146] | 0.01 to 0.1 |  | EC50 [5]: 0.01 to 0.1 µM
